What was measured:
Test in all cases: relative viability (nuclei count vs DMSO), 5 days (fraction); higher = more cells survive
[1] = compound: c1ccc2c(CCNc3ccc(Nc4ccncc4)cc3)c[nH]c2c1 [Serdemetan] + CS(=O)(=O)CCNCc1ccc(-c2ccc3ncnc(Nc4ccc(OCc5cccc(F)c5)c(Cl)c4)c3c2)o1 [Lapatinib] (partner 2 µM)
In short: (§1)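 Relative viability equals treated-well nuclei counts divided by vehicle-well nuclei counts. Counts came from 4× images of lung cancer cell lines grown in 1536-well plates for 5 days after pin-tool dosing on the day after seeding. Dosing used one drug alone or a fixed anchor-drug dose plus five library-drug doses (not always all listed) in √10 steps, and values are medians of duplicate plates.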

[2] = compound: C1CC(C2=C(C1)C3=C(N2)C=CC(=C3)Cl)C(=O)N [Selisistat] + N=C(N)NC(=N)NCCc1ccccc1 [Phenformin] (partner 250 µM)
In short: as §1

[3] = compound: C1CC(C2=C(C1)C3=C(N2)C=CC(=C3)Cl)C(=O)N [Selisistat] + O=C(CCCCCCC(=O)Nc1ccccc1)NO [Vorinostat] (partner 1 µM)
In short: as §1

[4] = compound: c1ccc2c(CCNc3ccc(Nc4ccncc4)cc3)c[nH]c2c1 [Serdemetan] + O=C(CCCCCCC(=O)Nc1ccccc1)NO [Vorinostat] (partner 1 µM)
In short: as §1

Cell Line	relative viability ([1]; first compound 0.04 µM)	relative viability ([1]; first compound 0.1265 µM)	relative viability ([1]; first compound 0.4 µM)	relative viability ([1]; first compound 1.265 µM)	relative viability ([1]; first compound 4 µM)	relative viability ([2]; first compound 0.4 µM)	relative viability ([2]; first compound 1.265 µM)	relative viability ([2]; first compound 4 µM)	relative viability ([2]; first compound 12.65 µM)	relative viability ([2]; first compound 40 µM)	relative viability ([3]; first compound 0.4 µM)	relative viability ([3]; first compound 1.265 µM)	relative viability ([3]; first compound 4 µM)	relative viability ([3]; first compound 12.65 µM)	relative viability ([3]; first compound 40 µM)	relative viability ([4]; first compound 0.04 µM)	relative viability ([4]; first compound 0.1265 µM)	relative viability ([4]; first compound 0.4 µM)	relative viability ([4]; first compound 1.265 µM)	relative viability ([4]; first compound 4 µM)
NCI-H1975	0.837	0.855	0.882	0.837	1.13	0.419	0.422	0.366	0.41	0.382	0.734	0.731	0.752	0.687	0.691	0.718	0.725	0.697	0.743	0.687
CAL-12T		0.859		0.599	0.579	0.586	0.565	0.406	0.516	0.537	0.66	0.727	1.05	0.766	0.768	0.857	0.82	0.748	0.922	0.627
NCI-H1623						0.557	0.556	0.413	0.579	0.533										
HCC-44	0.875	0.99	0.862	0.913	0.873	0.159		0.168	0.226	0.353	1.08	1.09	1.21	1.24	1.24	1.05	1.12	1.05	1.05	0.825
EKVX	0.193	0.19	0.201	0.18	0.168	0.221	0.243	0.222	0.23	0.249	0.708	0.757		0.903	0.655	0.798	0.719		0.462	0.546
NCI-H1651	0.575	0.65	0.49	0.271	0.275	0.381	0.293	0.274	0.307	0.284	0.625	0.672	0.552	0.638	0.622	0.573	0.386	0.509	0.492	0.336
NCI-H1944	0.788	0.7	0.768		0.494	0.209	0.201		0.196	0.214	0.563	0.526	0.51	0.547	0.593	0.485	0.628	0.635	0.339	0.294
NCI-H1703	1.38	1.05	1.07	1.09	0.885															
Calu-6	1.13	0.99	0.989	0.887	0.68															
EBC-1	0.23	0.238	0.218	0.21	0.203															
SW 1573	1.09	1.11	1.05	0.93	0.596	0.411	0.314	0.362	0.445	0.399	0.761	0.94		1.19	1.03	0.662	0.932	0.974	0.615	0.208
A-427	0.996	0.987	1.1	1.02	0.749	0.261	0.383	0.266	0.255	0.327	0.905	0.934		0.881	0.875	0.854	0.849	0.867	0.779	0.709
NCI-H2347	0.8	0.938	0.781	0.812	0.872	0.4	0.438	0.228	0.382	0.276	0.478	0.484		0.666	0.772	0.648	0.53	0.703	0.334	0.414
NCI-H1355	0.938	1.13	0.911	1.02	0.973	0.488	0.486	0.433	0.465	0.462	0.686	0.696	0.704	0.719	0.798	0.654	0.688	0.632	0.617	0.541
NCI-H358	0.42	0.509	0.439	0.558	0.405	0.358	0.281	0.186	0.332	0.412	0.766	0.636	0.686	0.778	0.8	0.677	0.689	0.612	0.402	0.461
PC-3 [JPC-3]	0.439	0.471		0.447	0.465	0.488	0.481	0.48	0.487	0.48	0.899	0.979		0.748	0.691	0.877	0.807	0.671	0.626	0.835
NCI-H2228	1.07	1.03	0.984	0.431	0.391	0.301	0.271	0.205	0.295	0.307	0.724	0.5	1	0.725	1.08	0.588	0.542	0.573	0.244	0.219
HOP-62	0.862	1.06	0.937	0.791	0.89	0.663	0.619	0.777	0.64	0.676	0.604	0.783	0.735	0.613	0.923	0.702	0.713	0.881	0.36	0.406
HARA	0.653	0.773	0.68		0.604	0.412	0.476	0.412	0.396	0.379	0.436	0.552	0.529	0.756	0.85	0.527	0.565	0.492	0.483	0.274
NCI-H838	0.9	0.986	0.9	0.86	1.01	0.62	0.478	0.346	0.547	0.57	0.721	0.806	0.81	0.764	0.773	0.729	0.69	0.684	0.728	0.696

— the supplement of paper PMC10307832
